The values below are quoted from earlier work in patent publication US10888524B2, “Immediate release tablet of dofetilide” (Enaltec Pharma Research Pvt. Ltd., priority 2018, dated 2021).

Data set [1] relates to patients with severe left ventricular dysfunction. Particulars: unlike class I agents.
For data set [2], the system named is patients with atrial as well as ventricular arrhythmias.

`CN(CCOc1ccc(NS(C)(=O)=O)cc1)CCc1ccc(NS(C)(=O)=O)cc1` [Dofetilide, N-[4-[2-[methyl[2-[4-[(methylsulfonyl)amino]phenoxy]ethyl]amino]ethyl]phenyl]-methane sulfonamide]: the “Safety in patients with congestive heart failure” value in data set [1] was “safe”. Moreover, the “Efficacy in treating arrhythmias” value in data set [2] is recorded as “effective”.
